Target: T1, Dimer of Gag-Pol polyprotein [489-587] (Human immunodeficiency virus 1, UniProt P12497)
T1 construct: 489-587
Experiment: Protease Inhibition Assay
Details: pH 5.5; 30 °C
Experimental: The IC50 values for the compounds were determined using purified HIV-1 Protease. Inhibition of the cleavage of the peptide H-Val-Ser-Gln-Asn-(L-beta-napthylalanine)-Pro-Ile-Val-OH was assessed at 30 °C, pH = 5.5 with [Enzyme] = 30 pM for 1 h, using HPLC with UV detection for quantification of the products. For the IC50 data a substrate concentration of 0.4 mg/mL was used, and data was fit to a four parameter sigmoidal equation.

`CC(C)(C)NC(=O)[C@@H]1C[C@@H]2CCCC[C@@H]2CN1C[C@@H](O)[C@H](Cc1ccccc1)NC(=O)O[C@@H]1CO[C@@H]2CCO[C@@H]21` [(3R,3aS,6aR)-hexahydrofuro[3,2-b]furan-3-yl N-[(2S,3R)-4-[(3S,4aS,8aS)-3-(tert-butylcarbamoyl)-decahydroisoquinolin-2-yl]-3-hydroxy-1-phenylbutan-2-yl]carbamate] was tested, and the IC50 was greater than 3 µM.

— BindingDB's records for doi:10.1021/jm960128k (University of Illinois At Chicago, 1996)
